How the values were obtained:
[1] = test system: HepG2 (human liver) cell culture; assay: Modified cytotoxicity protocol: residual anions of neutralized acid formulations; assay type: cell-based; details: for Cytotoxicity of residual anions, conclusion in words: pH 1.5
Procedure: Purpose: A modified cytotoxicity protocol was developed focusing on the cytotoxicity of the residual anions of the acid formulations. Twenty different acids formulations were tested, each in the range of 1.95 to 1.5 pH. Each formulation was diluted with distilled water to hydronium concentrations of 11.22 mM (pH 1.95), […] (pH 1.85), 19.95 mM (pH 1.70), 25.12 mM (pH 1.60), and 31.62 mM (pH 1.50). It was then titrated with NaOH to 7.4 pH and applied to HepG2 (human liver) cell culture in triplicate replicates.

[2] = test system: Staphylococcus aureus ATCC 6538; assay: Modified ASTM E2315 test of low pH therapeutic with AMPs, acid neutralized after one minute; assay type: cell-based
Excerpt: Since the reaction speed of the two different MOAs are different, a modified test protocol was developed, which is summarized below. • a. […] Heretofore, it has been believed that AMPs are unstable in low pH environments. Mixture of dry powder immediately prior to use is believed to address concerns regarding minimization of in vitro stability. • b. The prepared AMP solution was then mixed with the bacteria containing media. After one minute the acid solution was neutralized. This simulates the short antimicrobial period for the elevated proton concentration in vivo. The bacteria population was measured to determine efficacy after one minute. • c. The AMPs retained in the solution are not expected to stop their antimicrobial activity after acid neutralization, so a second bacteria population measurement was made after 24 hours. [table]

[3] = test system: mouse fibroblast cells
[4] = aerosolized, pH range of 1.5 to 2.0
Excerpt: Additionally, the low pH acid formulation needs to provide no or minimum deleterious effect to host tissues.

[5] = test system: human coronavirus; details: therapeutic concentration (~1.7 pH), in vitro suspension tests
[6] = 4.0% w/v concentration; cited from earlier work

## Isoacorbic + sulfuric [Example 17]
[1]
  % Viability @ pH 1.9: 89.3%

## Isoascorbic + HCl [Example 18]
[1]
  Cytotoxicity of residual anions, conclusion in words: least toxic
  % Viability @ pH 1.9: 104%

## LL-37 [Example 38, reference compound]
[2]; bacteria population after one minute, then acid neutralized, no soiling, single-replicant
  1-min Efficacy (log): 4.15 log
[2]; comparison of Table 3 examples
  Efficacy on S. aureus, conclusion in words: highly effective
[2]; second bacteria population measurement after 24 hours, acid neutralized after one minute
  24-hour Efficacy (log): >6.45 log

## Sulfuric [Example 3]
[1]
  Cytotoxicity of residual anions, conclusion in words: least toxic
  % Viability @ pH 1.9: 140%

## Hydroxyacetic + HCl [Example 15]
[1]
  % Viability @ pH 1.9: 117%

## Hydroxyacetic +. Sulfuric [Example 8]
[1]
  % Viability @ pH 1.9: 72.7%

## O=S(=O)(O)O [sulfuric acid]
[3]
  Cytotoxicity: no cytotoxicity
[4]
  Harm to host respiratory tissues in vivo: not harmful
[5]
  Time to inactivating and/or reducing concentration of human coronavirus: ≤ 1 min

## OB(O)O [Boric acid]
[6]
  pH: 4.8-5.0
